Reference: patent US20250101077A1, “PEPTIDES AND PHARMACEUTICAL COMPOSITION FOR THE TREATMENT OF TUMOURS” (UNIVERSIDAD DE SALAMANCA, priority 2022, published 2025)

Experiments:
[1] = tested on: G166 human glioblastoma stem cells; assay: MTT colour viability test and phase-contrast images; assay type: cell-based; conditions: 50 μM; for proliferation and survival of human glioblastoma stem cells: phase-contrast images at 48h and MTT at 0, 24, 48 and 72h, FIGS. 5 and 6; for morphology and viability of glioblastoma stem cells (MTT assay): FIG. 1
Description: The human glioblastoma stem cell line G166 was obtained from Biorep, deposited and characterised in Pollard et al., Cell Stem Cell. 4(6):568-80 (2009). The human glioblastoma stem cell line E22 was also obtained from Pollard lab (U. Edinburgh).
In all these cases, cells were cultured in neurobasal culture medium supplemented with 2% B27, 1% N2, 20 ng/mL EGF and 20 ng/mL bFGF, in laminin-coated culture plates, to generate adherent cell cultures. Thanks to their self-renewal capacity, when these cells are expanded in adherent cultures under these culture conditions, they maintain the above-mentioned properties, i.e. the characteristic glioblastoma stem cell phenotype and genotype, including their tumourigenicity, for more than 20 passages.
(§1) Different peptides based on the 266-283 sequence of Cx43 fused to TAT at its N-terminal end were used, all at a concentration of 50 μM, in culture medium and their effect was analysed at different treatment times. In parallel, these cells were analysed in the absence of treatment (control), in the presence of the antitumour peptide TAT-Cx43266-283 ([…]; corresponding to the peptide described in patent WO2014191608 A1 linked to the cell internalisation sequence TAT; SEQ ID NO: 35) and in the presence of the peptides without antitumour activity, TAT (YGRKKRRQRRR; SEQ ID NO: 7) and TAT-Cx43274-291 (YGRKKRRQRRR PTAPLSPMSPPGYKLVTG; SEQ ID NO: 26). For pull-down assays and visualization the peptides were fused to biotin via a C-terminal lysine.
For this study, cells were seeded at low density and the number of viable cells was determined at different days of treatment. For this purpose, the medium was removed and the cells were incubated with 300 μL of PBS in the presence of MTT (0.5 mg/mL) for 75 minutes in the dark at 37° C. in a CO2 incubator. The medium was then removed, and 500 μL of DMSO was added. The cells were shaken in the dark for 10 minutes. Finally, absorbance was determined at 570 nm.

[2] = tested on: human glioblastoma stem cells; assay: Internalisation of biotin-fused peptides; assay type: cell-based; conditions: peptides fused to biotin
Description: as §1

[3] = tested on: G166 human glioblastoma stem cells; assay: Migration by live cell microscope videos; assay type: cell-based; conditions: 50 μM, frames every 100 minutes, FIG. 7
Description: FIG. 7. Representative images of the effect of Cx43-based penetrating peptides on the migration of human glioblastoma stem cells. G166 human glioblastoma stem cells were treated in the absence (control) or presence of TAT-Cx43266-283 or TAT-Cx43266-275, both at a concentration of 50 μM. Phase-contrast videos of the cells were made using a live cell microscope. Shown are 3 representative frames taken every 100 minutes of the cells in the control condition, TAT-Cx43266-283 and TAT-Cx43266-275. 3 cells in each condition have been selected and numbered.
Migration is the cause of these tumour cells invading the surrounding parenchyma, escaping surgery and causing the recurrence of these tumours, which is the main cause of mortality.

albumin = albumin (Homo sapiens, UniProt P02768); assay: Albumin binding by Western blot under native or denaturing and reducing conditions; conditions: 2.5 μM biotinylated peptide plus 0.1% (w/v) albumin in PBS, native conditions, FIG. 8
Description: FIG. 8. TAT-Cx43266-283 and TAT-Cx43266-275 bind to albumin via a cysteine dependent mechanism. TAT, TAT-Cx43274-291, TAT-Cx43266-283, TAT-Cx43266-283F/A, TAT-Cx43266-283C/A and TAT-Cx43266-275 were fused to biotin to allow their analysis by Western blot. Solutions of each peptide plus albumin in PBS were analyzed in native (N) or denaturing and reducing conditions (DR) to identify their interaction with albumin. […] Note that the sensitivity of the Ponceau staining was not enough to detect the peptide at about 10 kDa, therefore only albumin bands are shown. […] Note that TAT-Cx43266-283 and TAT-Cx43266-275 appear bound to albumin under native conditions while denaturation and reduction promoted the release of these peptides.
Western blotting was performed as described previously (Jaraiz-Rodriguez, M. et al., Neuro-Oncology, 22, 493-504 (2020)). Briefly, 2.5 μM biotinylated peptides plus 0.1% (w/v) albumin in PBS were analysed by Western blot under native (N) or denaturing and reducing (DR) conditions. For native conditions, samples were analysed without further treatment. For denaturing and reducing conditions samples were treated with 0.1 M β-mercaptoethanol and 4% SDS and heated at 99° C. for 5 min. Samples were subjected to electrophoresis on NuPAGE Novex Bis-Tris 4-12% Midi gels (Life Technologies) at room temperature and constant voltage. Proteins were transferred to a nitrocellulose membrane (iBlot Gel Transfer Stacks Nitrocellulose) using an iBlot dry blotting system (Life Technologies). Membranes were incubated with Ponceau S staining solution for protein staining in red. After washing the membranes were blocked with 5% non-fat dry milk in PBS and then incubated with HRP-Streptavidin (1:5000; Dako P0397) for 30 minutes at room temperature. After extensive washing, the membranes were developed with a chemiluminescent substrate (Western Blotting Luminol Reagent; Santa Cruz Biotechnology) in a MicroChemi imaging system (Bioimaging Systems).

Csk = biological target: T1, Csk (Homo sapiens, UniProt P41240); assay: Pull-down of biotinylated peptides with NeutrAvidin beads, Western blot; assay type: binding; conditions: 50 μM biotinylated peptide, 30 min, E22 glioblastoma stem cells, FIG. 9
T1 construct: endogenous in cells; host or cells: human E22 glioblastoma stem cells
T1 sequence (P41240 whole entry): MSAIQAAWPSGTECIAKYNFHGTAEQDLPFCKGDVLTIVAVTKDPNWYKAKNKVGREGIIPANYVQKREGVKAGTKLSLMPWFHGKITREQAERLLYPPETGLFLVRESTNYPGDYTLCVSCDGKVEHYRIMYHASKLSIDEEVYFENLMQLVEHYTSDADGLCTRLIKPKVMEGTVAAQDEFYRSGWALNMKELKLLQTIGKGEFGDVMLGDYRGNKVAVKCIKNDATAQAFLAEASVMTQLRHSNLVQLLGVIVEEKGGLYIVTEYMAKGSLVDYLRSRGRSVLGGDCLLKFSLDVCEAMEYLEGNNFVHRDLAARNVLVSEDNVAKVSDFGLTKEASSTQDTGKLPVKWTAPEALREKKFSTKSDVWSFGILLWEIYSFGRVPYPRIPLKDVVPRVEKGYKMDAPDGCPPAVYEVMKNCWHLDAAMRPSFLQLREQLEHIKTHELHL
Description: (§2) FIG. 9. Intracellular interactions of biotinylated TAT-Cx43266-283, TAT-Cx43266-283C/A and TAT-Cx43266-275 in human glioblastoma stem cells. Human E22 glioblastoma stem cells were incubated with 50 μM biotinylated TAT-Cx43266-283, TAT-Cx43266-283C/A and TAT-Cx43266-275. After 30 min the cells were lysed and biotinylated peptides attached to their intracellular partners were pulled down with NeutrAvidin beads. The eluted proteins were loaded and analyzed by Western blot to study the levels of c-Src, Y416-Src, and Csk.
(§3) Pulldown experiments were performed as described in González-Sánchez A. et al., Oncotarget, 7(31):49819-49833 (2016); Jaraiz-Rodriguez M. et al., J Vis Exp. (130):56457 (2017)). Confluent cells grown in 25 cm^2 flasks were incubated with 50 μM biotinylated peptides for 30 min. Proteins were then collected in 0.5 ml of lysis buffer (20 mM Tris-HCl (pH 8.0), 137 mM NaCl, 1% IGEPAL, 1 mM PMSF, protease cocktail (1:100; Cocktail Ill, Calbiochem), 1 mM NaF and 0.1 mM Na3VO4). Lysates were centrifuged at 11000×g for 10 minutes at 4° C., and the supernatants were recovered. A 50-μl aliquot of each lysate was used to analyze the protein content, and the remaining lysate was incubated with NeutrAvidin-Agarose (Thermo Scientific, Rockford, IL, USA; Ref. 29200) for 12 h at 4° C. with gentle shaking. The avidin beads bound with the peptides were collected by centrifugation (3000×g for 1 minutes at 4° C.). The beads were then washed five times with lysis buffer, and the bound proteins were eluted and analyzed by Western blotting under denaturing and reducing contidions. The membranes were blocked with 5% non-fat dry milk in PBS-T and then incubated overnight at 4° C. with the primary antibodies against rabbit CSK (1:250; Cell Signaling Technology, Ref. 4980), rabbit Y416 Src (1:250, Cell Signaling Technology, Ref. 2101) and mouse total c-Src (1:500, Cell Signaling Technology, Ref. 2110). To detect biotinylated peptides, the membranes were incubated with HRP-conjugated streptavidin in PBS (1:5000; Dako Ref.P0397) for 30 minutes and then developed with a chemiluminescent substrate.

Y416-Src = biological target: T2, Y416-Src (Homo sapiens, UniProt P12931); assay: as above; assay type: binding; conditions: 50 μM biotinylated peptide, 30 min, E22 glioblastoma stem cells, FIG. 9
T2 construct: endogenous in cells; host or cells: human E22 glioblastoma stem cells
Description: as §2, §3

c-Src [4] = biological target: T3, c-Src (Homo sapiens, UniProt P12931); assay: as above; assay type: binding; set-up: the cells were lysed and biotinylated peptides attached to their intracellular partners were pulled down with NeutrAvidin beads; endogenous in cells; host or cells: human E22 glioblastoma stem cells; conditions: 50 μM biotinylated peptide, 30 min, E22 glioblastoma stem cells, FIG. 9
Description: as §2
as §3, with “To detect biotinylated peptides, the membranes were incubated with HRP-conjugated streptavidin in PBS (1:5000; Dako Ref.P0397) for 30 minutes and then developed with a chemiluminescent substrate.” left out

c-Src [5] = biological target: T3, c-Src; conditions: from cited publications; cited from earlier work
[6] = tested on: human and mouse glioblastoma stem cells; conditions: in vitro and in vivo, from cited publications; cited from earlier work

YGRKKRRQRRRAYFNGCSSPT [TAT-Cx43266-275]
anti-tumour effect compared with the other peptides (MTT assay) ([1]; 0-72h, FIG. 6): significantly higher than the rest of the peptides | proliferation and survival of human glioblastoma stem cells [1]: reduce proliferation and survival | internalisation in human glioblastoma stem cells [2]: able to be internalised | migration of human glioblastoma stem cells [3]: reduces the migration | binding to albumin (albumin): bind to albumin under native conditions | intracellular interaction with Csk (Csk): interact preferentially | intracellular interaction with Y416-Src (Y416-Src): interact preferentially | intracellular interaction with c-Src (c-Src [4]): interact preferentially

YGRKKRRQRRRAYFNGASSPTAPLSPMSP [TAT-Cx43266-283 C/A]
morphology and viability of glioblastoma stem cells (MTT assay) ([1]; 48h): very similar to that of untreated (control) cells | binding to albumin (albumin): disrupted albumin-peptide interaction | intracellular interaction with Csk (Csk): did not show significant interactions | intracellular interaction with Y416-Src (Y416-Src): did not show significant interactions | intracellular interaction with c-Src (c-Src [4]): did not show significant interactions

YGRKKRRQRRRCSSPTAPLSPMSPPGYK [TAT-Cx43271-287]
glioblastoma stem cell survival and proliferation (MTT assay) ([1]; 72h, FIG. 2): slightly reduces glioblastoma stem cell proliferation

YGRKKRRQRRRAYFNGCSSPTAPLSPM [TAT-Cx43266-281]
proliferation and survival of human glioblastoma stem cells [1]: reduce proliferation and survival | internalisation in human glioblastoma stem cells [2]: able to be internalised

YGRKKRRQRRRAYFNGCSSPTAP [TAT-Cx43266-277]
proliferation and survival of human glioblastoma stem cells [1]: reduce proliferation and survival | internalisation in human glioblastoma stem cells [2]: able to be internalised

YGRKKRRQRRRAYANGCSSPTAPLSPMSP [TAT-Cx43266-283 F/A]
tumour cell morphology and viability (MTT assay) ([1]; 48h, FIG. 4): affects tumour cell morphology and viability, but to a much lesser extent | binding to albumin (albumin): did not affect the interaction with albumin

YGRKKRRQRRR PTAPLSPMSPPGYKLVTG (YGRKKRRQRRRPTAPLSPMSPPGYKLVTG) [TAT-Cx43274-291, reference compound]
proliferation and survival of human glioblastoma stem cells [1]: do not produce significant effects

YGRKKRRQRRR (Cell internalisation sequence) [TAT, reference compound]
proliferation and survival of human glioblastoma stem cells [1]: do not produce significant effects

YGRKKRRQRRRAYFNGCSSPTAPLSPMSP [TAT-Cx43266-283, reference compound]
morphology and viability of glioblastoma stem cells (MTT assay) ([1]; 48h): significantly reduces the viability | proliferation and survival of human glioblastoma stem cells [1]: reduce proliferation and survival | internalisation in human glioblastoma stem cells [2]: able to be internalised | migration of human glioblastoma stem cells [3]: reduces the migration | binding to albumin (albumin): bind to albumin under native conditions | intracellular interaction with Csk (Csk): interact preferentially | intracellular interaction with Y416-Src (Y416-Src): interact preferentially | c-Src activity (c-Src [5]): inhibit c-Src activity | antitumour effect [6]: potent antitumour effect | intracellular interaction with c-Src (c-Src [4]): interact preferentially

YGRKKRRQRRRFNGCSSPTAPLSPMSP [TAT-Cx43268-283]
ability to reduce proliferation (MTT assay) ([1]; 72h, FIG. 3): less ability to reduce proliferation than TAT-Cx43266-283

YGRKKRRQRRRAYFNGCSSPTAPLS [TAT-Cx43266-279]
proliferation and survival of human glioblastoma stem cells [1]: reduce proliferation and survival | internalisation in human glioblastoma stem cells [2]: able to be internalised
